Experimental findings from the NIST ThermoML archive (doi:10.1016/j.jct.2016.12.021) are described below.

± gives the expanded uncertainty stated by the source.

The conditions of the data set: Liquid, Closed cell (Static) method.

The term vapor or sublimation pressure denotes the equilibrium pressure above the liquid or solid.

With `CCC` [propane], the “vapor or sublimation pressure” value is on record as 836.8 ± 2.4 kPa (293.18 K); 950.8 ± 2.8 kPa (298.15 K); 1380.1 ± 10 kPa (313.15 K); 1713 ± 4.5 kPa (323.15 K); 3135.4 ± 6.2 kPa (353.15 K).

With `FC(F)F` [trifluoromethane], the “vapor or sublimation pressure” value was 4171.7 ± 11 kPa (293.18 K) and 4709.3 ± 12 kPa (298.15 K).
